Data from PMC3546729, “Electrochemical Characterization of Escherichia coli Adaptive Response Protein AidB” (International Journal of Molecular Sciences, 2012).

Key:
AidB [1] = molecular target: T1, AidB (Escherichia coli, UniProt P33224); assay: UV-visible spectroscopy and redox potentiometry of bound flavin; assay type: binding; conditions: bound FAD of the purified protein; pH 8.0, 300 mM NaCl, anaerobic
T1 construct: predominantly tetramer in solution
T1 sequence (P33224 1-541): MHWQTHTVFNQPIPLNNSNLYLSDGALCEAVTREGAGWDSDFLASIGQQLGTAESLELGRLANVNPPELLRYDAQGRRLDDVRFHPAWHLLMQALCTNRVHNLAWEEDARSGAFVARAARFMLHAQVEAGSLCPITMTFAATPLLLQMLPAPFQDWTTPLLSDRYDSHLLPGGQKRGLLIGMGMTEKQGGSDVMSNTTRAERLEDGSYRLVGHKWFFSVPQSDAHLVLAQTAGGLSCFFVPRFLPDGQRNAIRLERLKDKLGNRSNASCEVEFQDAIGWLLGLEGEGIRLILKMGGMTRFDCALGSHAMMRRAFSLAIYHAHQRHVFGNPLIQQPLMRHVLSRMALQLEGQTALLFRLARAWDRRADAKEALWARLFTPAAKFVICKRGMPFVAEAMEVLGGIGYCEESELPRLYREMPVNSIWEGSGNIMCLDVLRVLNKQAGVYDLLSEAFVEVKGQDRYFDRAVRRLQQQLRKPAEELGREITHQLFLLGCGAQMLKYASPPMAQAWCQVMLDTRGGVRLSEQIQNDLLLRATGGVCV

AidB [2] = molecular target: T1, AidB; assay: shift of flavin midpoint reduction potential (xanthine/xanthine oxidase redox potentiometry), two-state binding fit; conditions: read-out: Kd^app

Compound	UV-visible spectroscopy and redox potentiometry of bound flavin (AidB [1])	Kd (AidB [2]) [µM]
Cc1cc2nc3c(=O)[nH]c(=O)nc-3n(C[C@H](O)[C@H](O)[C@H](O)COP(=O)(O)OP(=O)(O)OC[C@H]3O[C@@H](n4cnc5c(N)ncnc54)[C@H](O)[C@@H]3O)c2cc1C [FAD]	Reduction potentials of the AidB FAD cofactor were measured using the xanthine/xanthine oxidase system	
CC(C)CC(=O)SCCNC(=O)CCNC(=O)[C@H](O)C(C)(C)COP(=O)(O)OP(=O)(O)OC[C@H]1O[C@@H](n2cnc3c(N)ncnc32)[C@H](O)[C@@H]1OP(=O)(O)O [IVCoA]		87 ± 27
